Reference: patent publication US4132738A, “Preparation of 15-deoxy-16-hydroxyprostaglandins” (Miles Laboratories, Inc., priority 1978, dated 1979)

Tests used:
Settings in all cases: comparison in words
rat stomach = experiment: Cascade assay, rat stomach fundus in vitro; format: cell-based
Description: (§1) The smooth muscle stimulant effects of the test compounds were determined simultaneously in four different tissues that are known to be reactive to naturally occurring prostaglandins. Segments of rat stomach fundus, rat colon, chick rectum and rabbit aortic strip were obtained as described by: Vane, J. R., Brit. J. Pharmacol., 12: 344 (1957); Regoli, D. and Vane, J. R., Brit. J. Pharmacol., 23: 351 (1964); Mann, M. and West, G. B., Brit. J. Pharmacol., 5: 173 (1950); and Furchgott, R. F. and Bhadrakom, R., J. Pharmacol. Exper. Ther., 108: 129 (1953). One end of each preparation was tied to the bottom of a 10 ml tissue chamber and the other to a force displacement transducer (Grass FT-03) for continuous tension recording. The stomach, colon, and rectum segments were stretched to an initial tension of 1 g, while the aortic strip was subjected to 4 g. All preparations were left undisturbed for 1 hour prior to ptesting. The chambers were equipped with an external jacket through which water, maintained at 40° C., was circulated. […]
(§2) Test compounds were diluted from stock solutions so as to administer quantities ranging from 0.0001 to 100,000 ng in a volume of 0.5 ml. […] Maximal increases in tension after each dose were measured and the results were used to plot dose-response curves. […]
(§3) Activity in each tissue was scored according to the following scale: […]

rat colon = experiment: Cascade assay, rat colon in vitro; format: cell-based
Description: as §1, §2, §3

[1] = system: blood pressure and heart rate in the anesthetized cat; experiment: Effects on blood pressure and heart rate in the anesthetized cat; format: in vivo
Description: The acute effects of test compounds on blood pressure and heart rate were determined in cats of either sex anesthetized with a mixture of pentobarbital sodium (35 mg/kg, i.v.) and barbital sodium (100 mg/kg, i.v.). Cannulas were placed in the trachea to allow adequate spontaneous ventilation, in a femoral artery for blood pressure recording with a strain gage transducer, and in a saphenous vein for drug administration.
Heart rate was recorded by means of a cardiotachometer driven by the R wave of the electrocardiogram. After a period of 10 minutes of stable recordings of blood pressure and heart rate, the test compound was administered intravenously at doses increasing from 0.01 to 10.0 mcg/kg, spaced one log and injected at 10 minute intervals. All doses were injected in a volume of 0.1 ml/kg. Modifications of blood pressure and heart rate induced by the test compound were expressed both in absolute units (mmHg and beats/minute) and as percent of values recorded immediately before administration of each dose. Biphasic responses were tabulated in the order in which they occurred. […]
Activity of compounds in this test was judged only on the basis of the degree of hypotension observed. Thus, the ED50 mmHg (dose decreasing blood pressure by 50 mmHg) was calculated graphically, and the compound scored according to the following scale: […]

[2] = system: rat stomach, rat colon, chick rectum, and rabbit aorta; experiment: Cascade assay, all four tissues; format: cell-based
Description: as §1, §2, §3

| Compound | Cascade stomache value, methyl ester versus carbinol (rat stomach) | Cascade colon value, methyl ester versus carbinol (rat colon) | Feline blood pressure and heart rate value, methyl ester versus carbinol [1] | Cascade values, methyl ester versus carbinol [2] |
| --- | --- | --- | --- | --- |
| CCCCC(O)C/C=C/[C@H]1[C@H](O)CC(=O)[C@@H]1CCCCCCC(=O)OC (stereo partly drawn) [TR 4705, Methyl 11α, 16RS-dihydroxy-9-oxoprost-13E-en-1-oate, reference compound] | higher | higher |  |  |
| CCCCC(C)(O)C/C=C/[C@H]1[C@H](O)CC(=O)[C@@H]1CCCCCCC(=O)OC (stereo partly drawn) [TR 4704, Methyl 11α, 16RS-dihydroxy-16-methyl-9-oxoprost-13E-oate, reference compound] |  |  | significantly and undesirably higher | significantly and undesirably higher |
